Calls of active or inactive are those of the source. The rule behind the calls is not given here.
Assays:
Format in all cases: functional, cell-based
Bel-7402 = assay: Cytotoxicity against human Bel-7402 cells assessed as reduction in cell viability by CCK8 assay
HT-29 = assay: Cytotoxicity against human HT-29 cells assessed as reduction in cell viability by CCK8 assay
U-251 = assay: Cytotoxicity against human U-251 cells assessed as reduction in cell viability by CCK8 assay
A549 = assay: Cytotoxicity against human A549 cells assessed as reduction in cell viability by CCK8 assay
HCT-116 = assay: Cytotoxicity against human HCT-116 cells assessed as reduction in cell viability by CCK8 assay

| Structure (SMILES) | Activity (Bel-7402) | Activity (HT-29) | Activity (U-251) | Activity (A549) | Activity (HCT-116) | IC50 (HCT-116) [µM] |
| --- | --- | --- | --- | --- | --- | --- |
| COC(=O)C[C@H]1[C@]2(C)C3=C(C)[C@H](c4ccoc4)C[C@H]3O[C@@H]2[C@H](OC(C)=O)[C@H]2[C@](C)(C=O)[C@H](O)C[C@H](OC(=O)c3ccccc3)[C@@]21C | inactive | inactive | inactive | inactive | inactive |  |
| COC(=O)C[C@H]1[C@]2(C)C3=C(C)[C@H](c4ccoc4)C[C@H]3O[C@@H]2[C@@H]2OC[C@]3(C)[C@H](OC(=O)/C=C/c4ccccc4)C[C@H](OC(=O)c4ccccc4)[C@@]1(C)[C@@H]23 | inactive | inactive | inactive | inactive | inactive |  |
| C=C(C)C(=O)O[C@@H]1[C@@H]2OC[C@]3(C)[C@H](OC(C)=O)C[C@H](OC(C)=O)[C@@](C)([C@@H]23)[C@@H](CC(=O)OC)[C@]1(C)C1=C(C)[C@H](c2ccoc2)C[C@@H]1OC | inactive | inactive | inactive | inactive | inactive |  |
| CC(=O)O[C@H](C(=O)C=C(C)C)[C@H](C)[C@@H]1CC[C@]2(C)C3=CC[C@H]4C(C)(C)C(=O)CC[C@]4(C)[C@H]3C[C@@H](O)[C@@]12C | inactive | inactive | inactive | inactive |  | 5.9 |
| CC(C)=CCC[C@H]1C(=O)O[C@H]2C[C@]3(C)C4=CC(=O)[C@H]5C(C)(C)[C@@H](O)CC[C@]5(C)[C@H]4CC[C@@]3(C)[C@@H]21 | inactive | inactive | inactive | inactive | inactive |  |
| CO[C@@H]1O[C@@H]([C@H](O)C(C)(C)O)C[C@H]1[C@@H]1CC[C@]2(C)C3=CC[C@H]4C(C)(C)[C@@H](O)CC[C@]4(C)[C@H]3CC[C@@]12C | inactive | inactive | inactive | inactive | inactive |  |
| C/C=C(\C)C(=O)O[C@@H]1[C@@H]2OC[C@]3(C)[C@H](OC(C)=O)C[C@H](OC(C)=O)[C@@](C)([C@@H]23)[C@@H](CC(=O)OC)[C@]1(C)C1=C(C)[C@H](c2ccoc2)C[C@@H]1OC | inactive | inactive | inactive | inactive | inactive |  |
| CC(C)=CCC[C@@H](C(=O)O)[C@@H]1[C@@H](O)C[C@]2(C)C3=CC[C@H]4C(C)(C)[C@@H](O)CC[C@]4(C)[C@H]3C[C@@H](O)[C@@]12C | inactive | inactive | inactive | inactive | inactive |  |
| COC(=O)C[C@H]1[C@](C)(C2=C(C)[C@H](c3ccoc3)C[C@@H]2OC(C)=O)[C@H](OC(=O)c2ccccc2)[C@@H]2OC[C@]3(C)[C@H](OC(C)=O)C[C@H](OC(C)=O)[C@@]1(C)[C@@H]23 | inactive | inactive | inactive | inactive | inactive |  |
| C/C=C(\C)C(=O)O[C@H]1C[C@@H](OC(=O)c2ccccc2)[C@@]2(C)CO[C@H]3[C@H]4O[C@@H]5C[C@@H](c6ccoc6)C(C)=C5[C@@]4(C)[C@H](CC(=O)OC)[C@]1(C)[C@@H]32 | inactive | inactive | inactive | inactive | inactive |  |
| COC(=O)C[C@H]1[C@](C)(C2=C(C)[C@H](c3ccoc3)C[C@@H]2OC)[C@H](OC(=O)c2ccccc2)[C@@H]2OC[C@]3(C)[C@H](OC(C)=O)C[C@H](OC(C)=O)[C@@]1(C)[C@@H]23 | inactive | inactive | inactive | inactive | inactive |  |
| CC(=O)O[C@H]1C[C@@H](OC(C)=O)[C@@]2(C)CO[C@H]3[C@@H](OC(=O)c4ccccc4)[C@@]4(C)C5=C(C)[C@H](c6ccoc6)C[C@@H]5O[C@@H](O)C[C@@H]4[C@]1(C)[C@@H]32 | inactive | inactive | inactive | inactive | inactive |  |
| COC(=O)C[C@H]1[C@]2(C)C3=C(C)[C@H](c4ccoc4)C[C@H]3O[C@@H]2[C@@H]2OC[C@]3(C)[C@H](OC(=O)c4ccccc4)C[C@H](OC(=O)/C=C/c4ccccc4)[C@@]1(C)[C@@H]23 | inactive | inactive | inactive | inactive | inactive |  |
| COC(=O)C[C@H]1[C@]2(C)C3=C(C)[C@H](c4ccoc4)C[C@H]3O[C@@H]2[C@@H]2OC[C@]3(C)[C@H](OC(=O)c4ccccc4)C[C@H](OC(=O)c4ccccc4)[C@@]1(C)[C@@H]23 | inactive | inactive | inactive | inactive |  | 0.3 |
| C/C=C(\C)C(=O)O[C@@H]1[C@@H]2OC[C@]3(C)[C@H](OC(C)=O)C[C@H](OC(C)=O)[C@@](C)([C@@H]23)[C@@H](CC(=O)OC)[C@]1(C)C1=C(C)[C@H](c2ccoc2)C[C@H]1OC | inactive | inactive | inactive | inactive | inactive |  |
| C/C=C(\C)C(=O)O[C@H]1C[C@@H](O)[C@@](C)(C=O)[C@@H]2[C@@H](OC(C)=O)[C@H]3O[C@@H]4C[C@@H](c5ccoc5)C(C)=C4[C@@]3(C)[C@H](CC(=O)OC)[C@@]12C | inactive | inactive | inactive | inactive | inactive |  |
| C/C=C(\C)C(=O)O[C@@H]1C[C@H](OC(=O)/C=C/c2ccccc2)[C@@]2(C)[C@H]3[C@@H](OC[C@]13C)[C@H]1O[C@@H]3C[C@@H](c4ccoc4)C(C)=C3[C@@]1(C)[C@@H]2CC(=O)OC | inactive | inactive | inactive | inactive | inactive |  |
| CO[C@H]1O[C@@H]([C@H](O)C(C)(C)O)C[C@H]1[C@@H]1CC[C@]2(C)C3=CC[C@H]4C(C)(C)[C@@H](O)CC[C@]4(C)[C@H]3CC[C@@]12C | inactive | inactive | inactive | inactive | inactive |  |
| COC(=O)C[C@H]1[C@](C)(C2=C(C)[C@H](c3ccoc3)C[C@H]2OC)[C@H](OC(=O)c2ccccc2)[C@@H]2OC[C@]3(C)[C@H](OC(C)=O)C[C@H](OC(C)=O)[C@@]1(C)[C@@H]23 | inactive | inactive | inactive | inactive | inactive |  |
| CC(=O)O[C@H]1[C@@H](OC(=O)c2ccccc2)[C@@]2(C)C3=CC[C@@H](c4ccoc4)[C@]3(C)[C@@H](OC(C)=O)C[C@@H]2[C@@]2(C)[C@@H](O)C[C@@H](OC(C)=O)[C@](C)(C=O)[C@H]12 | inactive | inactive | inactive | inactive | inactive |  |
| C/C=C(\C)C(=O)O[C@@H]1[C@@H]2OC[C@]3(C)[C@H](OC(C)=O)C[C@H](OC(C)=O)[C@@](C)([C@@H]23)[C@H]2C[C@H](O)O[C@H]3C[C@@H](c4ccoc4)C(C)=C3[C@]12C | inactive | inactive | inactive | inactive | inactive |  |
